Reference: patent US20110053836A1, “USE OF DEFENSINS AGAINST TUBERCULOSIS” (priority 2008, published 2011)
Read-outs that look alike come from different tables or passages of the source.

Key:
Type in all cases: cell-based, Mycobacterium tuberculosis
M. tuberculosis H37Rv = details: for Fold of reduction: RLU relative to buffer control; for MIC: concentration that reduces RLU by 90% (1 log), 96 hours
M. tuberculosis [1] = tested on: M. tuberculosis
Method: The validation of the Relative Light Unit assay (RLU) was carried out by comparing it to conventional Colony Forming Unit (CFU) assay. In this assay, the cells were exposed to the different concentrations of the peptide for 96 hours and then plated onto 7H10 plates. The plates were incubated at 37° C. for 30 days and the colonies were enumerated.

H37Rv expressing LUX = details: 6.25 micrograms/ml; ~0.1 OD600 and ~1.0 OD600; 96 hours
M. tuberculosis [2] = tested on: M. tuberculosis; remark: listed apart in the source
[3] = peptide 25 micrograms/ml, buffer control 53503
[4] = peptide 6.25 micrograms/ml, buffer control 75380

Substance	Fold of reduction (M. tuberculosis H37Rv; peptide 25 micrograms/ml)	RLU (M. tuberculosis H37Rv; [3])	MIC (M. tuberculosis H37Rv)	other results
SEQ ID NO: 3: plectasin variant, substitutions Q14K + K26R compared to SEQ ID NO: 2 (GFGCNGPWDEDDMKCHNHCKSIKGYRGGYCAKGGFVCKCY)	23.2	2310	–	–
SEQ ID NO: 4: plectasin variant, substitution K26R compared to SEQ ID NO: 2 (GFGCNGPWDEDDMQCHNHCKSIKGYRGGYCAKGGFVCKCY)	28.1	1903	–	–
SEQ ID NO: 5: plectasin variant, substitution Q14F compared to SEQ ID NO: 2 (GFGCNGPWDEDDMFCHNHCKSIKGYKGGYCAKGGFVCKCY)	34.1	1567	–	–
SEQ ID NO: 6: plectasin variant, substitutions Q14R + K26R + K38R compared to SEQ ID NO: 2 (GFGCNGPWDEDDMRCHNHCKSIKGYRGGYCAKGGFVCRCY)	11.9	4483	–	–
SEQ ID NO: 7: plectasin variant, substitutions Q14R + K20R compared to SEQ ID NO: 2 (GFGCNGPWDEDDMRCHNHCRSIKGYKGGYCAKGGFVCKCY)	40.0	1339	6.25 micrograms/ml	–
SEQ ID NO: 8: plectasin variant, substitution Q14L compared to SEQ ID NO: 2 (GFGCNGPWDEDDMLCHNHCKSIKGYKGGYCAKGGFVCKCY)	24.9	2145	–	–
SEQ ID NO: 9: plectasin variant, substitutions N5R + M13V compared to SEQ ID NO: 2 (GFGCRGPWDEDDVQCHNHCKSIKGYKGGYCAKGGFVCKCY)	31.8	1685	6.25 micrograms/ml	–
SEQ ID NO: 10: plectasin variant, substitutions M13K + K38R compared to SEQ ID NO: 2 (GFGCNGPWDEDDKQCHNHCKSIKGYKGGYCAKGGFVCRCY)	46.4	1152	–	–
SEQ ID NO: 11: plectasin variant, substitutions Q14R + K26R compared to SEQ ID NO: 2 (GFGCNGPWDEDDMRCHNHCKSIKGYRGGYCAKGGFVCKCY)	14.8	3604	–	–
SEQ ID NO: 12: plectasin variant, substitutions N5S + D9S + M13L + Q14R + N17V + A31S compared to SEQ ID NO: 2 (GFGCSGPWSEDDLRCHVHCKSIKGYKGGYCSKGGFVCKCY)	13.7	3901	–	–
SEQ ID NO: 13: plectasin variant, substitutions N5G + M13L compared to SEQ ID NO: 2 (GFGCGGPWDEDDLQCHNHCKSIKGYKGGYCAKGGFVCKCY)	20.8	2576	–	–
SEQ ID NO: 14: plectasin variant, substitutions N5G + D9S + M13L + N17Q + A31T compared to SEQ ID NO: 2 (GFGCGGPWSEDDLQCHQHCKSIKGYKGGYCTKGGFVCKCY)	49.4	1083	–	MBC obtained by CFU (M. tuberculosis [1]; 96 hours exposure, plated on 7H10, 30 days): 6.25 micrograms/ml; Mode of action (bactericidal) (M. tuberculosis [1]; MIC by RLU equivalent to MBC by CFU): bactericidal; Activity against early log and early stationary cells (H37Rv expressing LUX): potent activity against organisms in both early log and early stationary phases of growth; Inhibition of growth by OD600 (M. tuberculosis [2]; 6.25 micrograms/ml, T-25 flasks): completely inhibit the growth; MIC (=MBC) (M. tuberculosis [2]; confirmed by the assays of Examples 3 and 4 (CFU, OD600)): 6.25 micrograms/ml
SEQ ID NO: 15: plectasin variant, substitutions D9N + M13L + Q14R compared to SEQ ID NO: 2 (GFGCNGPWNEDDLRCHNHCKSIKGYKGGYCAKGGFVCKCY)	12.9	4165	–	–
SEQ ID NO: 16: plectasin variant, substitutions D9G + Q14R + K23R compared to SEQ ID NO: 2 (GFGCNGPWGEDDMRCHNHCKSIRGYKGGYCAKGGFVCKCY)	11.9	4495	–	–
SEQ ID NO: 17: plectasin variant, substitutions D9S + M13L + Q14R + K26R compared to SEQ ID NO: 2 (GFGCNGPWSEDDLRCHNHCKSIKGYRGGYCAKGGFVCKCY)	–	–	~6.25 micrograms/ml	Fold of reduction (M. tuberculosis H37Rv; peptide 6.25 micrograms/ml): 9.1; RLU (M. tuberculosis H37Rv; [4]): 8321
SEQ ID NO: 18: plectasin variant, substitutions D9S + Q14R + K26R compared to SEQ ID NO: 2 (GFGCNGPWSEDDMRCHNHCKSIKGYRGGYCAKGGFVCKCY)	–	–	~6.25 micrograms/ml	Fold of reduction (M. tuberculosis H37Rv; peptide 6.25 micrograms/ml): 9.8; RLU (M. tuberculosis H37Rv; [4]): 7702
SEQ ID NO: 19: plectasin variant, substitutions D9S + Q14K + K26R compared to SEQ ID NO: 2 (GFGCNGPWSEDDMKCHNHCKSIKGYRGGYCAKGGFVCKCY)	–	–	~6.25 micrograms/ml	Fold of reduction (M. tuberculosis H37Rv; peptide 6.25 micrograms/ml): 9.9; RLU (M. tuberculosis H37Rv; [4]): 7630
SEQ ID NO: 20: plectasin variant, substitutions D9S + M13L + Q14K + V36L compared to SEQ ID NO: 2 (GFGCNGPWSEDDLKCHNHCKSIKGYKGGYCAKGGFLCKCY)	–	–	6.25 micrograms/ml	Fold of reduction (M. tuberculosis H37Rv; peptide 6.25 micrograms/ml): 14.1; RLU (M. tuberculosis H37Rv; [4]): 5355
plectasin [SEQ ID NO: 2, reference compound]	25.7	2070	around 25 micrograms/ml	–
